Results published in patent US20140186376A1, “Compositions and Methods for Inhibiting CCL3” (University of Rochester, priority 2012, published 2014).

Test system: osteoclasts
Assay: Zoledronic acid treatment of normal mice: serum bone markers (ELISA) and micro-CT bone volumes
Format: in vivo
Settings: normal ZA-treated mice; 0.25 mg/kg i.p. bi-weekly; vehicle 142±28; p=0.0296
Protocol: The right hindlimb of each mouse was fixed in 10% Formalin for 48 hours, and then stored in 70% ethanol at 4° C. MicroCT analysis was performed as previously described (2009, Frisch et al., Blood 114:4054-4063).
All ELISAs were performed as indicated by the manufacturer's instructions. CTX measurements were performed using the RatLaps ELISA (AC-06F1, Immunodiagnostic Systems Inc.). TRACP 5b measurement was performed using Mouse TRAP ELISA (SB-TR103, Immunodiagnostic Systems Inc.). Osteocalcin measurement performed using the Mouse Osteocalcin EIA kit (BT-470, Biomedical Technologies). Bovine CTX from bone wafer culture media was measured using the Crosslaps® for Culture ELISA (AC-07F1, Immunodiagnostic Systems Inc.). Murine CCL3 protein measurement was performed using the Mouse CCL3/MIP-1 alpha Quantikine ELISA Kit (MMA00, R&D systems). Human CCL3 protein measurement was performed using the Human CCL3/MIP-1 alpha Quantikine ELISA Kit (DMA00, R&D systems).
Mice were given a 0.25 mg/kg intraperitoneal injection of zoledronic acid (ZA) bi-weekly for 2 weeks prior to induction of disease and throughout the course of the disease.

With `O=P(O)(O)C(O)(Cn1ccnc1)P(=O)(O)O` [ZA, Zoledronic acid] the “serum levels of osteocalcin” value was 49 ± 1 ng/mL.
